Measurements from patent publication US11377441B2, “Covalent inhibitors of KRAS” (Araxes Pharma LLC, priority 2017, dated 2022).

Each molecule was assayed against T1, KRAS G12C 1-169, his-tagged protein, GDP-loaded (Homo sapiens, UniProt P01116, G12C) (assay: Biochemical assay: covalent modification of KRAS G12C measured by mass spectrometry (RapidFire/TOF or Q-Exactive)). Settings: covalent binding to (modification of) KRAS G12C after a ten minute incubation period.
T1 construct: KRAS G12C 1-169, his-tagged protein, GDP-loaded
Type: binding
Protocol: Test compounds were prepared as 10 mM stock solutions in DMSO (Fisher cat #BP-231-100). KRAS G12C 1-169, his-tagged protein, GDP-loaded is diluted to 2 μM or 0.5 μM in buffer (20 mM Hepes, 150 mM NaCl, 1 mM MgCl2). Compounds were tested for activity as follows:
Compounds were diluted to 50× final test concentration in DMSO in 96-well storage plates. Compound stock solutions were vortexed before use and observed carefully for any sign of precipitation. Dilutions are as follow: • For 100 μM final compound concentration, compounds were diluted to 5000 μM (5 μL 10 mM compound stock+5 μL DMSO and mixed well by pipetting. • For 30 μM final compound concentration, compounds were diluted to 1500 μM (3 μL 10 mM compound stock+17 μL DMSO) and mixed well by pipetting. • For 10 μM final compound concentration, compounds were diluted to 500 μM (2 μL 10 mM compound stock+38 μL DMSO) and mixed well by pipetting. 49 μL of the stock protein solution was added to each well of a 96-well PCR plate (Fisher cat #1423027). 1 μL of the diluted 50× compounds were added to appropriate wells in the PCR plate using 12-channel pipettor. Reactions were mixed carefully and thoroughly by pipetting up/down with a 200 μL multi-channel pipettor. The plate was sealed well with aluminum plate seal, and stored in drawer at room temperature for 10 minutes, 30 minutes, 2 hours or 24 hours. 5 μL of 2% formic acid (Fisher cat #A117) in de-ionized H2O was then added to each well followed by mixing with a pipette. The plate was then resealed with aluminum seal and stored on dry ice until analyzed as described below.
The above described assays were analyzed by mass spectrometry according to one of the following two procedures:
The MS instrument was set to positive polarity, 2 GHz resolution, and low mass (1700) mode and allowed to equilibrate for 30 minutes. The instrument was then calibrated, switched to acquisition mode and the appropriate method loaded.
After another 30 minute equilibration time, a blank batch (i.e., buffer) was run to ensure equipment is operating properly. The samples were thawed at 37° C. for 10 minutes, briefly centrifuged, and transfer to the bench top. Wells A1 and H12 were spiked with 1 μL 500 μM internal standard peptide, and the plates centrifuged at 2000×g for 5 minutes. The method was then run and masses of each individual well recorded.
The masses (for which integration data is desired) for each well were pasted into the platemap and exported from the analysis. Masses for the internal standards were exported as well. The data at 50 ppm was extracted for the +19 charge state, and identity of well A1 was assigned using the internal standard spike and integrated. Peak data was exported as a TOF list and the above steps were repeated individually, for the +20, 21, 22, 23, 24, and 25 charge states.
The masses and peak intensities of KRAS G12C protein species were measured using a Dionex RSLCnano system (Thermo Scientific) connected to a Q Exactive Plus mass spectrometer (Thermo Scientific).
[…] of sample was each loaded onto a Aeris™ 3.6 μm WIDEPORE C4 200 Å, LC Column 50×2.1 mm column maintained at 40° C. at a flow rate of 600 μL/min with 20% Solvent A (0.1% formic acid in H2O) and […] (0.1% formic acid in acetonitrile). The liquid chromatography conditions were 20% solvent B for 1 minute, 20% to 60% solvent B for 1.5 minutes, 60% to 90% solvent for 0.5 minute, 90% solvent B for 0.2 minute, 90% to 20% solvent B for 0.2 minute, and then equilibrated for 1.6 minutes before the following sample injection. The flow rate was maintained at 600 μL/min throughout the sample analysis.
The mass spectrometer was operated in profile mode at a resolution of 17500, 5 microscans, using 50 msec max injection time and an AGC target of 1×10^6, and a full mass range from 800-1850 m/z was recorded. The HCD trapping gas was optimized for maximum sensitivity for intact proteins. […]

Compound	Binding %
C=CC(=O)N1C[C@H](C)N(c2nc(N3CC(N(C)C)C3)nc3c(F)c(-c4c(C)ccc5nn(C)cc45)c(Cl)cc23)C[C@H]1C (atropisomer, axis not shown) [Compound 88, 1-((2R,5S)-4-((R)-6-chloro-7-(2,5-dimethyl-2H-indazol-4-yl)-2-(3-(dimethylamino)azetidin-1-yl)-8-fluoroquinazolin-4-yl)-2,5-dimethylpiperazin-1-yl)prop-2-en-1-one]	++ (++ indicates binding activity from 50 to 80%)
C=CC(=O)N1C[C@H](C)N(c2nc(N3CC(N(C)C)C3)nc3c(F)c(-c4c(C)ccc5[nH]nc(N)c45)c(Cl)cc23)C[C@H]1C (atropisomer, axis not shown) [Compound 89, 1-((2R,5S)-4-((R)-7-(3-amino-5-methyl-1H-indazol-4-yl)-6-chloro-2-(3-(dimethylamino)azetidin-1-yl)-8-fluoroquinazolin-4-yl)-2,5-dimethylpiperazin-1-yl)prop-2-en-1-one]	+++ (+++ indicates binding activity greater than 80%)
C=CC(=O)N1C[C@H](C)N(c2nc(N3CC(N(C)C)C3)nc3c(F)c(-c4c(C)ccc5[nH]nc(N)c45)c(Cl)cc23)C[C@H]1C (atropisomer, axis not shown) [Compound 90, 1-((2R,5S)-4-((S)-7-(3-amino-5-methyl-1H-indazol-4-yl)-6-chloro-2-(3-(dimethylamino)azetidin-1-yl)-8-fluoroquinazolin-4-yl)-2,5-dimethylpiperazin-1-yl)prop-2-en-1-one]	+ (+ indicates binding activity greater than 0% and up to 50%)
C=CC(=O)N1C[C@H](C)N(c2nc(N3CC(N(C)C)C3)nc3c(F)c(-c4c(C)ccc5onc(N)c45)c(Cl)cc23)C[C@H]1C (atropisomer, axis not shown) [Compound 96, 1-((2R,5S)-4-((S)-7-(3-amino-5-methylbenzo[d]isoxazol-4-yl)-6-chloro-2-(3-(dimethylamino)azetidin-1-yl)-8-fluoroquinazolin-4-yl)-2,5-dimethylpiperazin-1-yl)prop-2-en-1-one]	+ (+ indicates binding activity greater than 0% and up to 50%)
C=CC(=O)N1C[C@H](C)N(c2nc(N3CC(N(C)C)C3)nc3c(F)c(-c4c(C)ccc5[nH]nc(C)c45)c(Cl)cc23)C[C@H]1C (atropisomer, axis not shown) [Compound 97, 1-((2R,5S)-4-((S)-6-chloro-7-(3,5-dimethyl-1H-indazol-4-yl)-2-(3-(dimethylamino)azetidin-1-yl)-8-fluoroquinazolin-4-yl)-2,5-dimethylpiperazin-1-yl)prop-2-en-1-one]	+ (+ indicates binding activity greater than 0% and up to 50%)
C=CC(=O)N1C[C@H](C)N(c2nc(N3CC(N(C)C)C3)nc3c(F)c(-c4c(C)ccc5[nH]nc(C)c45)c(Cl)cc23)C[C@H]1C (atropisomer, axis not shown) [Compound 98, 1-((2R,5S)-4-((R)-6-chloro-7-(3,5-dimethyl-1H-indazol-4-yl)-2-(3-(dimethylamino)azetidin-1-yl)-8-fluoroquinazolin-4-yl)-2,5-dimethylpiperazin-1-yl)prop-2-en-1-one]	+++ (+++ indicates binding activity greater than 80%)
C=CC(=O)N1CCN(c2nc(N3CC(N(C)C)C3)nc3c(F)c(-c4c(C)ccc5[nH]nc(C6CC6)c45)c(Cl)cc23)C[C@H]1C (atropisomer, axis not shown) [Compound 101, 1-((R)-4-((S)-6-chloro-7-(3-cyclopropyl-5-methyl-1H-indazol-4-yl)-2-(3-(dimethylamino)azetidin-1-yl)-8-fluoroquinazolin-4-yl)-2-methylpiperazin-1-yl)prop-2-en-1-one]	+ (+ indicates binding activity greater than 0% and up to 50%)
C=CC(=O)N1CCN(c2nc(N3CC(N(C)C)C3)nc3c(F)c(-c4c(C)ccc5[nH]nc(C6CC6)c45)c(Cl)cc23)C[C@H]1C (atropisomer, axis not shown) [Compound 102, 1-((R)-4-((R)-6-chloro-7-(3-cyclopropyl-5-methyl-1H-indazol-4-yl)-2-(3-(dimethylamino)azetidin-1-yl)-8-fluoroquinazolin-4-yl)-2-methylpiperazin-1-yl)prop-2-en-1-one]	+++ (+++ indicates binding activity greater than 80%)
C=CC(=O)N1CCN(c2nc(N3CC(N(C)C)C3)nc3c(F)c(-c4c(C)ccc5[nH]nc(C6CC6)c45)c(Cl)cc23)CC1 (atropisomer, axis not shown) [Compound 103, (S)-1-(4-(6-chloro-7-(3-cyclopropyl-5-methyl-1H-indazol-4-yl)-2-(3-(dimethylamino)azetidin-1-yl)-8-fluoroquinazolin-4-yl)piperazin-1-yl)prop-2-en-1-one]	+ (+ indicates binding activity greater than 0% and up to 50%)
C=CC(=O)N1CCN(c2nc(N3CC(N(C)C)C3)nc3c(F)c(-c4c(C)ccc5[nH]nc(C6CC6)c45)c(Cl)cc23)CC1 (atropisomer, axis not shown) [Compound 104, (R)-1-(4-(6-chloro-7-(3-cyclopropyl-5-methyl-1H-indazol-4-yl)-2-(3-(dimethylamino)azetidin-1-yl)-8-fluoroquinazolin-4-yl)piperazin-1-yl)prop-2-en-1-one]	+++ (+++ indicates binding activity greater than 80%)
C=CC(=O)N1C[C@H](C)N(c2nc(N3CC(N(C)C)C3)nc3c(F)c(-c4c(C)ccc5cn(C)nc45)c(Cl)cc23)C[C@H]1C (atropisomer, axis not shown) [Compound 105, 1-((2R,5S)-4-((R)-6-chloro-7-(2,6-dimethyl-2H-indazol-7-yl)-2-(3-(dimethylamino)azetidin-1-yl)-8-fluoroquinazolin-4-yl)-2,5-dimethylpiperazin-1-yl)prop-2-en-1-one]	++ (++ indicates binding activity from 50 to 80%)
C=CC(=O)N1C[C@H](C)N(c2nc(NC3CCN(C4CC4)CC3)nc3c(F)c(-c4c(C)ccc5[nH]nc(C6CC6)c45)c(Cl)cc23)C[C@H]1C (atropisomer, axis not shown) [Compound 110, 1-((2R,5S)-4-((S)-6-chloro-7-(3-cyclopropyl-5-methyl-1H-indazol-4-yl)-2-(1-cyclopropylpiperidin-4-ylamino)-8-fluoroquinazolin-4-yl)-2,5-dimethylpiperazin-1-yl)prop-2-en-1-one]	+ (+ indicates binding activity greater than 0% and up to 50%)
C=CC(=O)N1C[C@H](C)N(c2nc(NC3CCN(C4CC4)CC3)nc3c(F)c(-c4c(C)ccc5[nH]nc(C6CC6)c45)c(Cl)cc23)C[C@H]1C (atropisomer, axis not shown) [Compound 111, 1-((2R,5S)-4-((R)-6-chloro-7-(3-cyclopropyl-5-methyl-1H-indazol-4-yl)-2-(1-cyclopropylpiperidin-4-ylamino)-8-fluoroquinazolin-4-yl)-2,5-dimethylpiperazin-1-yl)prop-2-en-1-one]	++ (++ indicates binding activity from 50 to 80%)
C=CC(=O)N1C[C@H](C)N(c2nc(OCCN3CCOCC3)nc3c(F)c(-c4c(C)ccc5[nH]nc(C6CC6)c45)c(Cl)cc23)C[C@H]1C (atropisomer, axis not shown) [Compound 112, 1-((2R,5S)-4-((S)-6-chloro-7-(3-cyclopropyl-5-methyl-1H-indazol-4-yl)-8-fluoro-2-(2-morpholinoethoxy)quina-zolin-4-yl)-2,5-dimethylpiperazin-1-yl)prop-2-en-1-one]	+ (+ indicates binding activity greater than 0% and up to 50%)
